± gives the expanded uncertainty stated by the source.
Assays:
[1] = xn = mol fraction of the nth substance listed; conditions: Liquid; for electrical conductivity / viscosity: 101.3 kPa; for electrical conductivity: Eutech Cyberscan Con 11; for mass density: 101 kPa
[2] = refractive index (Na D-line) (dimensionless); xn = mol fraction of the nth substance listed; conditions: 101.3 kPa, Liquid, Standard Abbe refractometry

NC(=O)C(F)(F)F [2,2,2-trifluoroacetamide] + C[P+](c1ccccc1)(c1ccccc1)c1ccccc1.[Br-]
Conditions | electrical conductivity, [1] [S/m] | mass density, [1] [kg/m3] | refractive index, [2] | viscosity, [1] [mPa·s]
278.1 K, x2 = 0.111 | 0.0134 ± 0.014 | – | – | 657.7
288.15 K, x1 = 0.111 | – | – | 1.4913 ± 0.0054 | –
288.15 K, x2 = 0.111 | 0.0351 ± 0.014 | – | – | 405.9
298.15 K, x1 = 0.111 | – | – | 1.4849 ± 0.0054 | –
298.15 K, x2 = 0.111 | 0.0848 ± 0.014 | 1394.7 ± 6.3 | – | 136.5 ± 60
308.15 K, x1 = 0.111 | – | – | 1.4824 ± 0.0054 | –
308.15 K, x2 = 0.111 | 0.182 ± 0.014 | 1383.7 ± 6.2 | – | 71.3 ± 12
318.15 K, x1 = 0.111 | – | – | 1.4782 ± 0.0054 | –
318.15 K, x2 = 0.111 | 0.282 ± 0.014 | 1372.7 ± 6 | – | 39 ± 5
328.15 K, x1 = 0.111 | – | – | 1.4745 ± 0.0054 | –
328.15 K, x2 = 0.111 | 0.349 ± 0.014 | 1361.6 ± 5.9 | – | 24.1 ± 3.3
338.15 K, x1 = 0.111 | – | – | 1.4737 ± 0.0054 | –
338.15 K, x2 = 0.111 | 0.418 ± 0.014 | 1350.4 ± 5.7 | – | 16.6 ± 2.3
348.15 K, x2 = 0.111 | 0.482 ± 0.014 | 1339.3 ± 5.6 | – | 11.1 ± 1.6
358.15 K, x2 = 0.111 | 0.55 ± 0.02 | 1328.2 ± 5.5 | – | 0.9
368.15 K, x2 = 0.111 | 0.609 ± 0.014 | – | – | –

[Cl-].c1ccc(C[P+](c2ccccc2)(c2ccccc2)c2ccccc2)cc1 [benzyltriphenylphosphonium chloride] + OCC(O)CO
Conditions | electrical conductivity, [1] [S/m] | refractive index, [2] | viscosity, [1] [mPa·s]
328.15 K, x1 = 0.167 | – | – | 553.7
328.15 K, x2 = 0.167 | – | 1.5502 ± 0.0064 | –
338.15 K, x1 = 0.167 | 0.00187 | – | 339.3 ± 140
338.15 K, x2 = 0.167 | – | 1.5168 ± 0.0064 | –
348.15 K, x1 = 0.167 | 0.00167 | – | 118.6 ± 24
358.15 K, x1 = 0.167 | 0.00151 | – | 75.5 ± 9.8
368.15 K, x1 = 0.167 | 0.00139 | – | 38.7 ± 4.3

[Cl-].c1ccc(C[P+](c2ccccc2)(c2ccccc2)c2ccccc2)cc1 [benzyltriphenylphosphonium chloride] + OCCO
Conditions | electrical conductivity, [1] [S/m] | refractive index, [2] | viscosity, [1] [mPa·s]
328.15 K, x1 = 0.25 | 0.0485 ± 0.014 | – | 201.9
328.15 K, x2 = 0.25 | – | 1.5258 ± 0.0054 | –
338.15 K, x1 = 0.25 | 0.0199 ± 0.014 | – | 85.5 ± 20
338.15 K, x2 = 0.25 | – | 1.5309 ± 0.0054 | –
348.15 K, x1 = 0.25 | 0.00164 | – | 59.3 ± 7.2
358.15 K, x1 = 0.25 | 0.00148 | – | 50.5 ± 5.1
368.15 K, x1 = 0.25 | 0.00136 | – | 35.9 ± 4.9

C[P+](c1ccccc1)(c1ccccc1)c1ccccc1.[Br-] [methyltriphenylphosphonium bromide] + OCC(O)CO
Conditions | electrical conductivity [S/m] | mass density [kg/m3] | refractive index | viscosity [mPa·s]
[1], 278.1 K, x1 = 0.3636 | 0.00375 | – | – | –
[1], 288.15 K, x1 = 0.3636 | 0.00826 ± 0.014 | – | – | –
[1], 298.15 K, x1 = 0.3636 | 0.0165 ± 0.014 | 1289.9 ± 5 | – | –
[1], 308.15 K, x1 = 0.3636 | 0.0315 ± 0.014 | 1283 ± 5 | – | –
[1], 318.15 K, x1 = 0.3636 | 0.0555 ± 0.014 | 1275.9 ± 4.8 | – | 887.1
[1], 328.15 K, x1 = 0.3636 | 0.0901 ± 0.014 | 1268.8 ± 4.7 | – | 414.9 ± 190
[1], 338.15 K, x1 = 0.3636 | 0.127 ± 0.014 | 1261.9 ± 4.6 | – | 205.7 ± 63
[1], 348.15 K, x1 = 0.3636 | 0.182 ± 0.014 | 1255 ± 5 | – | 104.8 ± 19
[1], 358.15 K, x1 = 0.3636 | 0.242 ± 0.014 | 1248 ± 4 | – | 77.4 ± 10
[1], 368.15 K, x1 = 0.3636 | 0.315 ± 0.014 | – | – | 36.9 ± 4.2
[2], 288.15 K, x2 = 0.3636 | – | – | 1.5708 ± 0.0054 | –
[2], 298.15 K, x2 = 0.3636 | – | – | 1.5666 ± 0.0054 | –
[2], 308.15 K, x2 = 0.3636 | – | – | 1.5656 ± 0.0054 | –
[2], 318.15 K, x2 = 0.3636 | – | – | 1.5627 ± 0.0054 | –
[2], 328.15 K, x2 = 0.3636 | – | – | 1.5607 ± 0.0054 | –
[2], 338.15 K, x2 = 0.3636 | – | – | 1.5578 ± 0.0054 | –

C[P+](c1ccccc1)(c1ccccc1)c1ccccc1.[Br-] [methyltriphenylphosphonium bromide] + OCCO
Conditions | electrical conductivity, [1] [S/m] | mass density, [1] [kg/m3] | refractive index, [2] | viscosity, [1] [mPa·s]
278.1 K, x1 = 0.2 | 0.0371 ± 0.014 | – | – | 345 ± 140
288.15 K, x1 = 0.2 | 0.055 ± 0.014 | – | – | 186.1 ± 53
288.15 K, x2 = 0.2 | – | – | 1.5622 ± 0.0054 | –
298.15 K, x1 = 0.2 | 0.0788 ± 0.014 | 1232.6 ± 4.2 | – | 109.8 ± 20
308.15 K, x1 = 0.2 | 0.109 ± 0.014 | 1225.6 ± 4.1 | – | 68.6 ± 8.2
308.15 K, x2 = 0.2 | – | – | 1.5542 ± 0.0054 | –
318.15 K, x1 = 0.2 | 0.144 ± 0.014 | 1218.5 ± 4 | – | 39.5 ± 4.4
328.15 K, x1 = 0.2 | 0.188 ± 0.014 | 1211.4 ± 3.9 | – | 19.7 ± 2.2
328.15 K, x2 = 0.2 | – | – | 1.5483 ± 0.0054 | –
338.15 K, x1 = 0.2 | 0.234 ± 0.014 | 1204.3 ± 3.8 | – | 5.4 ± 0.6
338.15 K, x2 = 0.2 | – | – | 1.5446 ± 0.0054 | –
348.15 K, x1 = 0.2 | 0.285 ± 0.014 | 1197.2 ± 3.7 | – | 1.8 ± 0.2
358.15 K, x1 = 0.2 | 0.338 ± 0.014 | 1190 ± 3.7 | – | –
368.15 K, x1 = 0.2 | 0.382 ± 0.014 | – | – | –

— the NIST ThermoML archive (doi:10.1021/je100104v)
